The source made the active and inactive calls.
Assays:
[1] = off-target signal loss in HeLa-CEM21 co-culture – HeLa F-luc CTL cells, cherry-picked, counter-screen for HIV-1 Env fusion inhibitor project, dose response (AID 652040); format: functional, cell-based;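 note: potency for signal decrease marking cytotoxic or nonspecific inhibition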
[2] = inhibitors of clade B AD8 Env fusion, dose response, cell-based, cherry-pick (AID 652062); format: functional;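 note: luciferase signal from cell-cell fusion driven by HIV-1 clade B AD8 Env; potency is for inhibitors of fusion seen as a drop in luminescence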
[3] = inhibitors of HIV Env-driven cell fusion, dose response, cherry-pick (AID 652057); format: functional, cell-based
[4] = ZM109 Env clade C HIV-1 fusion inhibitors, dose response, HeLa effector, CEM target cells, luciferase, cherry-pick (AID 652058); format: functional, cell-based
[5] = target: T1, Adenosylmethionine-8-amino-7-oxononanoate aminotransferase (Mycobacterium tuberculosis, UniProt P9WQ81); experiment: Mycobacterium tuberculosis BioA enzyme inhibitor Measured in Biochemical System Using Plate Reader - 2163-02_Inhibitor_Dose_CherryPick_Activity.; format: functional, Mycobacterium tuberculosis UT205
T1 sequence (P9WQ81 whole entry): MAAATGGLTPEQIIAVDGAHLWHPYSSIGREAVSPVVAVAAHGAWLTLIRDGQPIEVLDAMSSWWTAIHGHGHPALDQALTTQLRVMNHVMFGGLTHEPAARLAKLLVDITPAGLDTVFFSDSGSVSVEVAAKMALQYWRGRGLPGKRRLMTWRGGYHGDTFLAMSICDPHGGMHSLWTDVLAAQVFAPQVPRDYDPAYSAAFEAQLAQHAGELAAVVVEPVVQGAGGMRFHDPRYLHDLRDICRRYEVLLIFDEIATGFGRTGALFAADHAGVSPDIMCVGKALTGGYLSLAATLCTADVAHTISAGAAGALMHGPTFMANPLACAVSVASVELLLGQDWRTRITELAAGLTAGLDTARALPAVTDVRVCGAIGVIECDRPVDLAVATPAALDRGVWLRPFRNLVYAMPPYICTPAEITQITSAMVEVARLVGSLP

[6] = target: Dual specificity tyrosine-phosphorylation-regulated kinase 1A (Rattus norvegicus, UniProt Q63470); format: biochemical, Homo sapiens
[7] = target: T2, Rac GTPase-activating protein 1 (Homo sapiens, UniProt Q9H0H5); experiment: MgcRacGAP GTPase-activating activity inhibitors, confirmation, biochemical, ADP Hunter fluorescence, primary and confirmatory (AID 624330); format: functional
T2 sequence (Q9H0H5 whole entry): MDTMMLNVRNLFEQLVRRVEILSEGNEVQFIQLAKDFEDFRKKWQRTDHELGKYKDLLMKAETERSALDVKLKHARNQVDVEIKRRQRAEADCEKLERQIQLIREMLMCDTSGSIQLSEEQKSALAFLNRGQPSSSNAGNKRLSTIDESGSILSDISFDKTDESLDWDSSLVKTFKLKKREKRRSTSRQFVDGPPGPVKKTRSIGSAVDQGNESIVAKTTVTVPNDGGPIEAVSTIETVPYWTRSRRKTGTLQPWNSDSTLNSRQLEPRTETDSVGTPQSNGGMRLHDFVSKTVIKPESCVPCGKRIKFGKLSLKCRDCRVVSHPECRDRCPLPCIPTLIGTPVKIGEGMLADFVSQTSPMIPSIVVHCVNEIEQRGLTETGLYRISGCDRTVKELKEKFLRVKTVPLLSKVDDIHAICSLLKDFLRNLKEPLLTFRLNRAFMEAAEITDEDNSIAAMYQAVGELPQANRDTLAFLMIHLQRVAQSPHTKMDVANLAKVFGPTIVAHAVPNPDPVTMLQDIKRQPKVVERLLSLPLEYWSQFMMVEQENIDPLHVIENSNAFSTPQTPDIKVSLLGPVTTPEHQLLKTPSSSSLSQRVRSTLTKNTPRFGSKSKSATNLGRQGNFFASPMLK

Caspase-3 = target: T3, Caspase-3 (Homo sapiens, UniProt P42574); format: functional;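 note: Dose-response selectivity test against caspase-3 for candidate inhibitors of sentrin-specific proteases (SENPs)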
T3 sequence (P42574 whole entry): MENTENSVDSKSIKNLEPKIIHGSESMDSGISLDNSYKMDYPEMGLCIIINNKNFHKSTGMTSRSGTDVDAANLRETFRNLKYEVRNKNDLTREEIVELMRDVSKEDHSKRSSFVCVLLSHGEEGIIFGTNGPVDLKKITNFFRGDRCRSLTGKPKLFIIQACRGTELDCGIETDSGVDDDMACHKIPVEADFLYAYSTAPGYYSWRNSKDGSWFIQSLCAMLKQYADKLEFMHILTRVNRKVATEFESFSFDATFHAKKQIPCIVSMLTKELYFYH

[8] = target: T4, Sentrin-specific protease 7 (Homo sapiens, UniProt Q9BQF6); format: functional;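 note: Luminescence-based dose-response confirmation of ultra-high-throughput screening hits, measuring inhibition of SENP7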
T4 sequence (Q9BQF6 whole entry): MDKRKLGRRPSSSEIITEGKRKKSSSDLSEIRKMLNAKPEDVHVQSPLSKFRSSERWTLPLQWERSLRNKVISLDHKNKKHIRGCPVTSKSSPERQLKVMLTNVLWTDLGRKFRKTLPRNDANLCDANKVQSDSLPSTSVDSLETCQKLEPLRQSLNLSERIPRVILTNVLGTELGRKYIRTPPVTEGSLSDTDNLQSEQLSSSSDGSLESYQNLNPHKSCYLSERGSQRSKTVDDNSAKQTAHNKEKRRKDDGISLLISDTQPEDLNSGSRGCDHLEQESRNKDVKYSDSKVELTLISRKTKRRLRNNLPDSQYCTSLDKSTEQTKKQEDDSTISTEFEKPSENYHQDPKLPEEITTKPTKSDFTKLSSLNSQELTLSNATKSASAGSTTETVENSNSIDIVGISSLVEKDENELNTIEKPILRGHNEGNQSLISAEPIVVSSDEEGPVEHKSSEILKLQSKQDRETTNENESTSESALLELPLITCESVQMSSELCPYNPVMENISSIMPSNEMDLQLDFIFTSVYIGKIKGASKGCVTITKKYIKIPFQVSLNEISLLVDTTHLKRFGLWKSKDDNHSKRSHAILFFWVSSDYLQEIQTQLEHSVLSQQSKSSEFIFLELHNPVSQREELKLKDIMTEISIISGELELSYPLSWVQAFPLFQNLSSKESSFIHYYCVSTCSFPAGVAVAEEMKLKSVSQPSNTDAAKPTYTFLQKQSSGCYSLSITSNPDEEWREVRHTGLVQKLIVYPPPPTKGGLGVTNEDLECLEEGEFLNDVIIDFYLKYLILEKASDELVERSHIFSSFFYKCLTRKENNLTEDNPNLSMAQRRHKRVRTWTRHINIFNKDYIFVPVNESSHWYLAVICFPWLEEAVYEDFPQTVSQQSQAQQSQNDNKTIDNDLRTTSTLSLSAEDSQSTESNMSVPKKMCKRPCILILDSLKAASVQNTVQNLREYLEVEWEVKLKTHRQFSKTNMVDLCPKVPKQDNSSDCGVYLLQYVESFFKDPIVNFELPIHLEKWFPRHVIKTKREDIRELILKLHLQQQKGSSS

[9] = target: T5, Sentrin-specific protease 8 (Homo sapiens, UniProt Q96LD8); format: functional;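 note: luminescence read-out of SENP8 inhibition, dose-response confirmation following an ultra-high-throughput screen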
T5 sequence (Q96LD8 whole entry): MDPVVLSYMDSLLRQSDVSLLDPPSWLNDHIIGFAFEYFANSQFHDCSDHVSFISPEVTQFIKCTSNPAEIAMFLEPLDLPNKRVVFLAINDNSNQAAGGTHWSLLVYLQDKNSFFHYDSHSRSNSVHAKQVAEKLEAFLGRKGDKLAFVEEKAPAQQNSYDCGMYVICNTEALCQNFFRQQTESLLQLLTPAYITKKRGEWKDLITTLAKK

[10] = target: T6, Sentrin-specific protease 6 (Homo sapiens, UniProt Q9GZR1); format: functional;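 note: Luminescence-based dose-response confirmatory assay of SENP6 inhibition, following up an ultra-high-throughput screen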
T6 sequence (Q9GZR1 whole entry): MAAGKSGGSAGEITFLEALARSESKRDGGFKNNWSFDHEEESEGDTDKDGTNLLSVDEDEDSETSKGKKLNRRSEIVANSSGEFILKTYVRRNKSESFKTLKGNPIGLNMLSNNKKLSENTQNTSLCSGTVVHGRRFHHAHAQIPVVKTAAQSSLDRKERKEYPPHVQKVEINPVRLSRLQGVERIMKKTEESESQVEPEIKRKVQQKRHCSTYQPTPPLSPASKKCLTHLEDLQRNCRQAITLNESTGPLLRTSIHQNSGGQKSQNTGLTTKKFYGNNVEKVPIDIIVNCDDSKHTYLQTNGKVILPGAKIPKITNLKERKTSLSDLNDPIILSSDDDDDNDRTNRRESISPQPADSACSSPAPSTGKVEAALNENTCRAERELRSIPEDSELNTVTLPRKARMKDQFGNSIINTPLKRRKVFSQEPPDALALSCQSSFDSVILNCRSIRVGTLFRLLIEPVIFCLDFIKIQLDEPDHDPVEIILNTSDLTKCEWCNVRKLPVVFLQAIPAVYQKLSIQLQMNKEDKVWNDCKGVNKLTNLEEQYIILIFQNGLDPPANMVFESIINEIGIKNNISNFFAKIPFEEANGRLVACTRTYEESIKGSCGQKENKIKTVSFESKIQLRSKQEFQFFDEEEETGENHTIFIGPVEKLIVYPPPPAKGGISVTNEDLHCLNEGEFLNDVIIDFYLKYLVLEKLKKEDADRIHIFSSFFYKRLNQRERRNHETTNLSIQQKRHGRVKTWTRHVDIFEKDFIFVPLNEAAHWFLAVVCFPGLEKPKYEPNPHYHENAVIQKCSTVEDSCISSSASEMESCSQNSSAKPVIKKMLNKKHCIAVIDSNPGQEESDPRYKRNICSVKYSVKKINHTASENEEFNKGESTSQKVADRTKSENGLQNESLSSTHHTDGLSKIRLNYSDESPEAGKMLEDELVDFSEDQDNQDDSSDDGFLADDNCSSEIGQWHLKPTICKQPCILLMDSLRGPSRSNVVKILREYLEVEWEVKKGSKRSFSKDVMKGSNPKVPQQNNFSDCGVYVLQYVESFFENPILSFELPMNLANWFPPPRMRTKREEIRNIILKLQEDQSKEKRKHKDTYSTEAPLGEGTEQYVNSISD

HeLa = experiment: HeLa cell cytotoxicity, dose response, cytotoxicity control for MITF activator project, CellTiter-Glo luminescence, cherry-pick samples (AID 540259); format: functional, cell-based; details: Homo sapiens
HEK293 = experiment: inhibitors of LMP1-driven NF-kB reporter, dose response, cell-based, HEK293, luciferase, cherry-pick (AID 588343); format: functional; details: Homo sapiens
[11] = target: T7, Low molecular weight phosphotyrosine protein phosphatase (Homo sapiens, UniProt P24666); format: functional; details: read-out: IC50_Mean;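 note: Dose-response confirmation assay measuring inhibition of LMPTP enzyme activity by fluorescence intensity read-out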
T7 sequence (P24666 whole entry): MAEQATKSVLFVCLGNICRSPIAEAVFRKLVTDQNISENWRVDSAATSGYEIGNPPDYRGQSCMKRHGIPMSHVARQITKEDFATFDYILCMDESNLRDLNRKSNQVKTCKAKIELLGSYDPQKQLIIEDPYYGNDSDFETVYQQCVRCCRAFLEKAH

Compound: Cc1nc2ccccc2nc(C)c1=NOCc1cccc(Cl)c1
- AC50 [1]: 11.6 µM (active)
- AC50 [2]: 0.421 µM (active)
- AC50 [3]: 10.3 µM (active)
- AC50 [4]: 13 µM (active)

Compound: CC(=O)c1c(C)[nH]c(C(=O)Nc2cccnc2)c1C
- AC50 [5]: 3 µM (active)

Compound: CCOc1cc(-c2nc3ccccc3s2)ccc1O
- AC50 [6]: 5.92 µM (active)
- IC50 [7]: 33.4 µM (active)

Compound: C[C@@]12C(=O)N(Cc3ccco3)CC(=O)N1[C@H]1c3ccccc3OC[C@@H]1[C@@H]2c1ccccc1
- AC50 [1]: 12.4 µM (active)
- AC50 [3]: 3.14 µM (active)
- AC50 [4]: 3.09 µM (active)

Compound: Fc1ccc(NC(S)=Nc2cccc3cnccc23)cc1
- AC50 [6]: 9.44 µM (active)

Compound: C[C@@H]1CN([C@H](C)CO)C(=O)c2cc(C#Cc3cccnc3)cnc2O[C@H]1CN(C)S(C)(=O)=O
- AC50 [5]: 3.35 µM (active)

Compound: COc1ccc(F)cc1C(=O)C1CCCN(C(=O)c2ccc(C(C)=O)s2)C1 (configuration not stated)
- AC50 [5]: 1.06 µM (active)

Compound: Cc1ccc(O)c(C2=Nc3ccccc3C2(C)C)c1
- IC50 (Caspase-3): 22.5 µM (active)
- IC50 [8]: 4.9 µM (active)
- IC50 [9]: 26.9 µM (active)
- IC50 [10]: 18.2 µM (active)
- AC50 (HeLa): 31.6 µM (active)

Compound: COc1ccc(C(=O)Nc2cccc(C(=O)N/N=C/c3ccc(OC)cc3OC)c2)cc1
- AC50 (HEK293): 1.79 µM (active)

Compound: O=C(CSc1nnc(NC(=O)c2ccc3c(c2)OCO3)s1)NCc1ccco1
- AC50 (HEK293): 2.65 µM (active)

Compound: O=C(CCCC(=O)N(c1ccc2c(c1)OCCO2)C(C(=O)NC1CCCCC1)c1ccc(F)cc1)Nc1ccccn1 (configuration not stated)
- AC50 [1]: 42.5 µM (active)
- AC50 [2]: 31.9 µM (active)
- AC50 [3]: 6.87 µM (active)
- AC50 [4]: 4.52 µM (active)

Compound: CN(C)C(=O)C[C@@H]1C[C@H]2c3cc(NS(=O)(=O)c4ccc(F)cc4)ccc3O[C@H]2[C@H](CO)O1
- AC50 [2]: 3.41 µM (active)

Compound: CN(C)c1ccc(/C=N/NC(=O)c2nnn(-c3nonc3N)c2COc2ccc(F)cc2)cc1
- IC50 [11]: 12 µM (active)

Compound: Cn1c(C(=O)NCC2CCCO2)cc2c(=O)n(C)c3ccccc3c21 (configuration not stated)
- AC50 [6]: 13.4 µM (active)

From ChEMBL document CHEMBL1201862, “PubChem BioAssay data set” (2004)
